Experiments:
[1] = Intracellular fluid concentration; type: in vitro ADME; conditions: preliminary results, data not shown
[2] = Lip-water partition coefficient; type: physicochemical; conditions: compound concentration in n-octyl alcohol 5 mM
[3] = test system: acetylated histone H3, acetylated histone H4, procaspase-3, cleaved caspase-3 and cleaved PARP; assay: Western blot analysis in HL60 cells; type: cell-based, human; conditions: 48 h treatment
[4] = test system: U937 human tumor xenografts; assay: In vivo antitumor assay, U937 xenograft model; conditions: for Body weight loss compared with the control group (toxicity): oral, MS275 50 mg/kg/day, 11a 100 mg/kg/day
[5] = test system: HCT116 human tumor xenografts; assay: In vivo antitumor assay, HCT116 xenograft model; conditions: oral, 11a 100 mg/kg, SAHA 100 mg/kg, MS275 50 mg/kg

| Intracellular fluid concentration, times lower than 11a [1] | Detection in water phase in LogP test (water solubility) [2] | Compound | Level of acetylated histone H3 and acetylated histone H4 (western blot) [3] | Levels of procaspase-3, cleaved caspase-3 and cleaved PARP (western blot) [3] | Body weight loss ([4]; first experiment, 100 mg/kg/day oral, three days later) | Body weight loss compared with the control group (toxicity) [4] | Body weight loss compared with the control group [5] |
| --- | --- | --- | --- | --- | --- | --- | --- |
| more than 10 times | could hardly detect 56c in water phase | COc1ccc(C(=O)N[C@@H](Cc2c[nH]c3ccccc23)C(=O)NCc2ccc(C(=O)Nc3cc(-c4ccccc4)ccc3N)cc2)cc1 [Compound 56c, (S)-4-((3-(1H-indol-3-yl)-2-(4-methoxybenzamido)propanamido)methyl)-N-(4-amino-[1,1’-biphenyl]-3-yl)benzamide] | much less effects | could be hardly affected | – | – | – |
| – | – | Nc1ccccc1NC(=O)c1ccc(CNC(=O)OCc2cccnc2)cc1 [MS275] | – | dramatically reduced the level of procaspase-3 and increased the level of cleaved caspased-3 and cleaved PARP | serious body weight loss | obvious body weight loss | serious body weight loss was observed |
| – | – | COc1ccc(C(=O)N[C@@H](Cc2c[nH]c3ccccc23)C(=O)NCc2ccc(C(=O)Nc3ccccc3N)cc2)cc1 [Compound 11a, (S)-4-((3-(1H-indol-3-yl)-2-(4-methoxybenzamido)propanamido)methyl)-N-(2-aminophenyl)benzamide] | markedly increase | dramatically reduced the level of procaspase-3 and increased the level of cleaved caspased-3 and cleaved PARP | – | This toxicity didn’t appear | – |
